Here are results for two molecules from US5187157A, “Peptide boronic acid inhibitors of trypsin-like proteases” (Du Pont Merck Pharmaceutical Company, priority 1988, dated 1993).

One experiment addresses chymotrypsin (Bos taurus, UniProt P00766). The conditions noted are these: literature; cited from earlier work.
A further experiment relates to rats. Nature of the experiment: Survival after thrombin infusion following oral dosing. Particulars: 5 mg/kg orally in water; 500 units/kg thrombin infused thirty to sixty minutes later; water controls: all fourteen died. The experiment is classed as in vivo. From the text: Thirty to sixty minutes later, all rats received an infusion of 500 units/kg thrombin over a period of one minute. All fourteen rats given only water died within ten minutes of the thrombin infusion. In contrast only 8 out of 17 rats treated with the inhibitor-containing water died within ten minutes, and the remainder survived one hour, at which time they were euthanized.

A further experiment relates to Male Lewis rats. In words: In Vivo Inhibition of Blood Coagulation Following Oral, Colonic and Rectal Administration. The conditions noted are these: mean for 3 rats. The method, then: Male Lewis rats weighing between 300-350 g were anesthetized with sodium pentobarbitol (50 mg/kg, i.p.) and the jugular vein was cannulated using a silastic tubing attached to a polyethylene 50 tubing. The tubing was exteriorized at the back of the neck and attached to a syringe through a stop cock. […] The blood samples were then transferred into vacutainers containing citrate buffer. Also, after each collection the cannula was flushed with saline. The blood samples were then centrifuged immediately (2500 rpm for 15 min) and 0.2 ml of the plasma samples were used for clotting time measurements. The clotting time measurements were carried out using a fibrometer as follows. First, plasma (0.2 ml) was placed in a fibro cup, and pH 7.4 Tris buffer (50 microliters) was added. The plasma buffer solution was incubated at 37° C. for 1 min, 50 microters of a 24 μ/ml thrombin solution in Tris buffer was then added, and clotting time in seconds was measured. When clotting time exceeded 300 seconds, it is reported below as >300.
The jugular vein-cannulated rats were allowed to recover from anesthesia before they were dosed orally. The protease inhibitor Ac-(D)Phe-Pro-boroArg--OH aqueous solution, consisting of 3 mg of inhibitor per kg weight of rat (approximately 1 mg/rat) in a volume of 0.75 ml of water per kg of rat, was administered by gavage.
A 3 cm incision was made in the abdomen of the jugular vein-cannulated rats while they were still under anesthesia. The colon was located and was tied off at both the beginning and the end. The protease inhibitor Ac-(D)Phe-Pro-boroArg--OH aqueous solution, consisting of 3 mg of inhibitor per kg weight of rat (approximately 1 mg/rat) in a volume of 1 ml of water per kg weight of rat, was injected at the beginning into the colon cavity. The incision was closed using wound clips.
The procedure for rectal administration in the jugular vein-cannulated rats was as described by Kamiya et al., J. Pharm. Sci., 71: 621 (1982). In brief, a device was made consisting of a 0.89 cm and a 0.71 cm silicon rubber septa connected by a 2 cm length of wire. This device was inserted into the rectum of the rat, the large septum first, and glued to the annus using suitable glue. Dosing was accomplished by injection through the exposed septum. The rectal dose was 3 mg of the protease inhibitor Ac-(D)Phe-Pro-boroArg--OH per kg weight of rat (approximately 1 mg/rat) in a volume of 0.6 ml of water per kg of rat.

In a further experiment the test system is Sprague Dawley CD Rats. Nature of the experiment: Inhibition of Blood Coagulation Following In Vivo Oral Dosing (thrombin times of plasma). The method, then:
Male rats (Sprague Dawley CD Rats, 130-140 g, supplied by Charles River Labs, Inc., Wilmington, MA) were anesthetized with sodium pentobarbital (50 mg/kg, i.p.). A midline incision was made on the ventral surface of the neck, and a polyethylene catheter was inserted in one of the carotid arteries and exteriorized at the back of the neck. After recovery from anesthesia, control blood samples were taken from the carotid artery catheter, anticoagulated with sodium citrate, and centrifuged (2000×g, 10 minutes). Plasma was transferred to plastic tubes and kept on ice until it was assayed. Thrombin times were measured using a fibrometer, as described in Examples 125-127.
The vehicle employed was 5% dimethylsulfoxide in saline. Blood samples were taken at various times after oral dosing and assayed as described above. When clotting time exceeded 300 seconds, it is reported below as >300.

The test system of a further experiment is normal rabbit plasma. Nature of the experiment: Thrombin times (TT), blood coagulation in vitro. The experiment is classed as biochemical. Particulars: thrombin 4 μ/ml. The method, then:
A mixture of 0.2 ml of normal rabbit plasma and 0.05 ml of buffer containing the inhibitor at 6 times the desired final concentration was warmed to 37° C. Clotting was initiated by addition of thrombin (0.05 ml at 6 times the final concentration). The thrombin used was purchased from Sigma Chemical Company (No. T-6634, activity 1190 NIH units per mg protein) and prepared in buffer. The buffer employed for both the inhibitor and the thrombin was 0.1 M Tris buffer (12.10 g/L), containing 0.154 M NaCl (8.84 g/L) and 2.5 mg/ml bovine serum albumin, pH 7.4. The clotting times, measured in seconds, were determined using a fibrometer. The effects of the inhibitor on blood clotting times compared with the blood clotting times of controls run in the absence of inhibitors, are shown in Table 6. Values represent the average of at least three determinations.

On to `CC(=O)N[C@@H](Cc1ccccc1)B(O)O` [(R)-1-acetamido-2-phenylethane boronic acid], for which the Ki at chymotrypsin is 4 µM.
As for `CC(=O)N[C@H](Cc1ccccc1)C(=O)N1CCC[C@H]1C(=O)N[C@@H](CCCN=C(N)N)B(O)O.Cl` [Ac-(D)Phe-Pro-boroArg-OH, Ac-(D)Phe-Pro-boroArg-OH.HCl], the “rats died within ten minutes of the thrombin infusion” value with rats is 8 out of 17. Besides, the Clotting Time in the experiment with Male Lewis rats (colonic 3 mg/kg, 0.0 hr) was 59.4 s; with Male Lewis rats (colonic 3 mg/kg, 0.5 hr) it was above 300 s; in the experiment on Male Lewis rats (colonic 3 mg/kg, 1.0 hr), above 300 s; with Male Lewis rats (colonic 3 mg/kg, 2.0 hr), above 300 s; in the experiment on Male Lewis rats (colonic 3 mg/kg, 4.0 hr), above 300 s; with Male Lewis rats (colonic 3 mg/kg, 5.0 hr), above 300 s. For the same molecule, the Clotting Time with Male Lewis rats (oral 3 mg/kg, 0.00 hr) was 57.3 s; with Male Lewis rats (oral 3 mg/kg, 0.25 hr) it was above 300 s; in the experiment with Male Lewis rats (oral 3 mg/kg, 0.50 hr), above 300 s; with Male Lewis rats (oral 3 mg/kg, 1.00 hr), above 300 s; in the experiment with Male Lewis rats (oral 3 mg/kg, 2.00 hr), above 300 s; in the experiment on Male Lewis rats (oral 3 mg/kg, 3.00 hr), above 300 s. Further, the Clotting Time was above 300 s with Male Lewis rats (oral 3 mg/kg, 4.00 hr); 66.4 s with Male Lewis rats (rectal 3 mg/kg, 0 hr); above 300 s in the experiment on Male Lewis rats (rectal 3 mg/kg, 0.25 hr); above 300 s with Male Lewis rats (rectal 3 mg/kg, 0.5 hr); above 300 s with Male Lewis rats (rectal 3 mg/kg, 1.0 hr); above 300 s in the experiment with Male Lewis rats (rectal 3 mg/kg, 2.0 hr). In the experiment on Male Lewis rats (rectal 3 mg/kg, 4.0 hr), this molecule yielded a Clotting Time above 300 s. The “clotting times (thrombin times)” value with Sprague Dawley CD Rats (oral gavage 1 mg, 1 hr) was above 300 s; in the experiment on Sprague Dawley CD Rats (oral gavage 1 mg, 2 hr), above 300 s; in the experiment on Sprague Dawley CD Rats (oral gavage 1 mg, 3 hr), above 300 s; in the experiment with Sprague Dawley CD Rats (oral gavage 1 mg, 4 hr, mean ± standard deviation), 47 ± 4 s; in the experiment on Sprague Dawley CD Rats (oral gavage 1 mg, 6 hr, mean ± standard deviation), 46 ± 3 s; with Sprague Dawley CD Rats (oral gavage 1 mg, .5 hr) it was above 300 s. Moreover, the “clotting times (thrombin times)” value was 54 ± 29 s in the experiment on Sprague Dawley CD Rats (oral gavage 2 mg, 4 hr, mean ± standard deviation); 44 ± 4 s with Sprague Dawley CD Rats (oral gavage 2 mg, 6 hr, mean ± standard deviation); above 300 s in the experiment on Sprague Dawley CD Rats (oral gavage 2 mg, .5 hr); above 300 s with Sprague Dawley CD Rats (oral gavage 10 mg, 1 hr); above 300 s in the experiment with Sprague Dawley CD Rats (oral gavage 10 mg, 2 hr); above 300 s in the experiment with Sprague Dawley CD Rats (oral gavage 10 mg, 3 hr). The “clotting times (thrombin times)” value in the experiment on Sprague Dawley CD Rats (oral gavage 10 mg, .5 hr) is above 300 s. The “Thrombin Times” value in the experiment with normal rabbit plasma (inhibitor 50 nM, mean ± standard deviation) was 32.7 ± 0.8 s; in the experiment on normal rabbit plasma (inhibitor 100 nM, mean ± standard deviation) it was 62.4 ± 7.2 s; in the experiment on normal rabbit plasma (inhibitor 150 nM, terminated at 300 seconds), above 300 s.
